Data published in patent publication US8143225B2 (priority 2002, dated 2012).
Where two headings read alike, the source gives them in different places.

Key:
[1] = test system: adult males and females treated for nocturia; assay: Clinical observations in adult males and females treated with desmopressin for nocturia; assay type: in vivo, human
Text: Hyponatremia can result in seizures, cardiac arrhythmias, cerebral edema and death.

[2] = clinical; conditions: male, human, in vivo
Protocol: Twenty-four healthy non-smoking male volunteers were enrolled in the present study. The study was designed as a one-centre, open-labelled, randomized, balanced, 4-way cross-over phase I study. […] Between the doses there was a washout period of 72 hours. In order to standardize the buccal mucosa before administration of the orodispersible tablet, the subjects were asked to avoid foods, chewing gun etc. Subjects were allowed to brush their teeth in the morning before dosing, but without toothpaste. […] 3.2 (Pharsight Corporation, US). […] Values below LOQ not followed by values above the LOQ are excluded from the NCA analysis, and set to zero in the descriptive statistics on concentrations.

[3] = Bioavailability of desmopressin conventional tablets (Comparative Example 4); conditions: male, human, in vivo, po, 200 μg
Text: Thirty-six healthy male volunteers (Caucasian, Black and Hispanic) were enrolled in this study, which was designed as an open label, single dose, 3-way crossover study.

[4] = human, in vivo, cited from earlier work
[5] = in vivo; cited from earlier work

**Q.** For `NC(=O)CC[C@@H]1NC(=O)[C@H](Cc2ccccc2)NC(=O)[C@H](Cc2ccc(O)cc2)NC(=O)CCSSC[C@@H](C(=O)N2CCC[C@H]2C(=O)N[C@H](CCCN=C(N)N)C(=O)NCC(N)=O)NC(=O)[C@H](CC(N)=O)NC1=O` [desmopressin, 1-desamino-8-D-arginine vasopressin], which incidence of nocturia ([1]; oral doses 100 to 400 mcg and intranasal doses 10 to 20 mcg) is on record?
**A.** Its incidence of nocturia is “decreased the incidence of nocturia”.

**Q.** What about the incidence of hyponatremia ([1]; standard oral doses 100 to 400 mcg and intranasal doses 10 to 20 mcg, nocturia patients) of the same molecule?
**A.** Its incidence of hyponatremia is “unexpectedly high incidence of hyponatremia”.

**Q.** What about the bioavailability [2] of the same molecule?
**A.** The bioavailability was 0.23 to 0.38%.

**Q.** And the bioavailability ([2]; bioavailability)?
**A.** The bioavailability was 0.3%.

**Q.** What about the bioavailability ([3]; oral 1×200 μg tablet (Comparative Example 2)) of the same molecule?
**A.** Its bioavailability is 0.16%.

**Q.** What about the bioavailability ([3]; oral 2×100 μg tablets (Comparative Example 3)) of the same molecule?
**A.** The bioavailability was 0.13%.

**Q.** What about the “% Bioavailability” value ([4]; iv) of the same molecule?
**A.** Its value is “Intravenous (100) %”.

**Q.** And the “% Bioavailability” value ([4]; po)?
**A.** Its value is “Oral (0.1) %”.

**Q.** What about the bioavailability ([4]; po) of the same molecule?
**A.** The bioavailability was 0.1-0.15%.

**Q.** And the “% Bioavailability” value ([4]; sc)?
**A.** Its value is “Subcutaneous (±90) %”.

**Q.** What about the absorption [5] of the same molecule?
**A.** Its absorption is “not significantly absorbed”.
